For experiment [1], the system named is L. acidophilus NCFM LBA1430 HPK mutant. Put plainly: Growth curves with 0.3% of individual bile salts. The class given is cell-based, Lactobacillus acidophilus. The following applies: 0.3% bile salt. As to the method: Growth curve experiments were also performed using 0.3% of individual bile salts: taurocholic acid, taurodeoxycholic acid, taurochenodeoxycholic acid, glycocholic acid, glycodeoxycholic acid.

Experiment [2] concerns L. acidophilus HPK mutant (NCK1686). Particulars: log-phase cells. As to the method: (§1) Log phase cells at an A600 of 0.25-0.3 (pH>5.8) from a 2% inoculum in MRS broth were centrifuged and resuspended in the same volume of NMS, or MRS containing 15 or 20% (v/v) ethanol. CFU/ml were determined at 30 minutes intervals by serial dilutions in 10% MRS and enumeration on MRS agar as described above.

Experiment [3] has as its system L. acidophilus control NCK1398 (NCFM::lacL). Particulars: 20% ethanol, after 90 min, log-phase cells. As to the method:
as §1

“Also recorded” adds a separate entry of the source.

In the case of `C[C@H](CCC(=O)NCCS(=O)(=O)O)[C@H]1CC[C@H]2[C@@H]3CC[C@@H]4C[C@H](O)CC[C@]4(C)[C@H]3C[C@H](O)[C@]12C` [Sodium taurodeoxycholate], the “effect on growth of the HPK mutant compared to wild type” value in experiment [1] is listed as “the only salt that affected the growth of the HPK mutant; also recorded: more inhibitory effect on the growth of the HPK mutant than other salts tested”.

Turning to `CCO` [ethanol], the “survival, HPK mutant versus control” value in experiment [2] (15% (v/v) ethanol) is reported as “No differences were observed”. The reduction in survival in experiment [2] (20% ethanol, after 90 min) is listed as 4 log; in experiment [3], 1 log.
